26 molecules from ChEMBL document CHEMBL5053550, “LipE guided discovery of isopropylphenyl pyridazines as pantothenate kinase modulators” (Bioorg Med Chem, 2021) can be followed below.

Each structure is given as a SMILES string. Values after ≈ are worked out from the molar mass of the structure shown.

The target in one series is Pantothenate kinase 3 (Homo sapiens, UniProt Q9H999).
The nature of series [1]: Permeability of the compound by PAMPA assay. The following applies: for Papp: read-out: permeability. The class given is ADME.
Series [2] can be described thus: Protein binding in rat plasma by LCMS analysis. It is filed as ADME, cell-free.
A short description of series [3]: Half life in mouse liver microsomes. The class given is ADME, Microsome. The following applies: for half-life: liver microsomes.
The nature of series [4]: Half life in […] rat microsomes. The class given is ADME, Liver, Microsome.
Series [5] is described as follows: Half life in […] human microsomes. It is filed as ADME, Liver, Microsome.
The nature of series [6]: Half life in human plasma. The class given is ADME, cell-free.
A short description of series [7]: Permeability across apical to basolateral side in human Caco2 cells. As to conditions: Caco-2, read-out: permeability. It is filed as ADME, cell-based.
Series [8] can be described thus: Protein binding in mouse plasma by LCMS analysis. It is filed as ADME, cell-free.
Series [9] is described as follows: Protein binding in human plasma by LCMS analysis. The class given is ADME, cell-free.
Series [10] can be described thus: Solubility of the compound in pH 7.4 by UV spectrometry. The class given is physicochemical. The following applies: buffer.

Pantothenate kinase 3, sequence (Q9H999 whole entry): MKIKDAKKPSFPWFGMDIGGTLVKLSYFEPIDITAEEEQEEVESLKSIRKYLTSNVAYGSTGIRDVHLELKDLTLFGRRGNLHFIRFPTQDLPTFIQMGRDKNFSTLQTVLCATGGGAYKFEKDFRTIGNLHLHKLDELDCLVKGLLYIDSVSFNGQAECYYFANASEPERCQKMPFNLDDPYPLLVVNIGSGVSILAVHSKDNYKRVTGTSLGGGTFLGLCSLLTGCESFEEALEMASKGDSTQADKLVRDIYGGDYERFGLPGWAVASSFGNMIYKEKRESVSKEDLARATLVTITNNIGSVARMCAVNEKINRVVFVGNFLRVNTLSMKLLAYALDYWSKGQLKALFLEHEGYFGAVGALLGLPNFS
Description for Pantothenate kinase 3: Inhibition of human recombinant N-terminal His6-fusion tagged PanK3 expressed in Escherichia coli BL21 (DE3) measured after 10 mins in presence of ATP and D-[14C]-pantothenate by scintillation counting method

`CC(C)c1ccc(NC(=O)N2CCN(c3ncccc3C#N)CC2)cc1` displayed a half-maximal inhibitory concentration (IC50) against Pantothenate kinase 3 of 1100 nM. In the case of `CC(C)c1ccc(NC(=O)N2CCN(c3ccc(Cl)c(Cl)c3)CC2)cc1`, the IC50 against Pantothenate kinase 3 came out at 1400 nM.

In turn, `CC(=O)c1ccc(N2CCN(C(=O)Nc3ccc(C(C)C)cc3)CC2)cc1` registered an IC50 on Pantothenate kinase 3 of 3300 nM. Compared with the last molecule, the IC50 is about 2.4-fold higher. The same measure, in the same setting: the result for `CC(C)c1ccc(NC(=O)N2CCN(c3ccc(Cl)cn3)CC2)cc1` reads 220 nM; that for `N#Cc1ccc(N2CCN(C(=O)Cc3ccc(C4CC4)cc3)CC2)nc1`, 200 nM; that for `CC(C)c1ccc(NC(=O)N2CCN(c3ccc(C#N)cn3)CC2)cc1`, 640 nM. As for `CC(C)c1ccc(NC(=O)N2CCN(c3ccc(F)cc3)CC2)cc1`, at Pantothenate kinase 3, the half-maximal inhibitory concentration (IC50) was 1800 nM.

Regarding `CC(C)(C)c1ccc(NC(=O)N2CCN(c3ccc(C#N)cn3)CC2)cc1`, the permeability in series [1] is 1232 10^-6 cm/s. For the same molecule, in [2], the PPB was determined as 98%. Further, the half-life in series [3] is 16 min; in [4], 31 min; in series [5], 8 min; in series [6] it was over 48 h. Turning to `CC(C)c1ccc(NC(=O)N2CCN(c3ccc(Br)cn3)CC2)cc1`, the concentration for half-maximal inhibition (IC50) on Pantothenate kinase 3 amounted to 220 nM.

On to `CC(C)c1ccc(CC(=O)N2CCN(c3ccc(C#N)nn3)CC2)cc1`, for which the Papp in series [1] turned out to be 413 ×10⁻⁶ cm/s. Besides, the Papp A→B in [7] was determined as 30.2 ×10⁻⁶ cm/s. Besides, the figures for the fraction unbound in series [8] (read-out: PPB (converted)), in [2] (read-out: PPB) and in series [9] (read-out: PPB (converted)) were 0.08, 0.09 and 0.07, respectively. The half-life in series [3] is 8 min; in series [5] it was 7 min; in series [6] it was over 48 h.

Consider `CC(C)c1ccc(NC(=O)N2CCN(c3ccc(C#N)nn3)CC2)cc1`, for which the solubility in series [10] is 5.5 µM (≈ 1.93 µg/mL). Moreover, the Papp in [1] was 316 ×10⁻⁶ cm/s. The results for the PPB in series [8], in series [2] and in series [9] were 92%, 89% and 92%, respectively. Moreover, the values for the t1/2 in series [3] (microsomes), in series [4] and in series [5] were 113 min, 294 min and 64 min, respectively. The molecule also gave a half-life in series [6] of over 48 h. The molecule `CC(C)c1ccc(NC(=O)N2CCN(c3cc(C#N)ccn3)CC2)cc1` gave an IC50 at Pantothenate kinase 3 of 230 nM. Consider `CCCCc1ccc(NC(=O)N2CCN(c3ccc(C#N)cn3)CC2)c(C)c1`, for which the IC50 at Pantothenate kinase 3 was 1200 nM.

`Cc1ccc(N2CCN(C(=O)Nc3ccc(C(C)C)cc3)CC2)nc1` returned a 50% inhibitory concentration (IC50) at Pantothenate kinase 3 of 2300 nM. On the same count and under the same terms, the result for `CC(C)c1ccc(OC(=O)N2CCN(c3ccc(C#N)cn3)CC2)cc1` reads 420 nM; that for `CC(C)c1ccc(C(O)C(=O)N2CCN(c3ccc(C#N)cn3)CC2)cc1` (stereo unspecified), 990 nM; that for `CC(C)c1ccc(CC(=O)N2CCN(c3nccc(Cl)n3)CC2)cc1`, 270 nM. Still for that read-out and setting: with `CC(C)c1ccc(NC(=O)N2CCN(c3cccc(Cl)c3)CC2)cc1` the figure was 1700 nM. The same measure, in the same setting: the result for `CC(C)c1ccc(NC(=O)N2CCN(c3ncc(Br)cn3)CC2)cc1` reads 160 nM; that for `CC(C)c1ccc(NC(=O)N2CCN(c3nccc(C#N)n3)CC2)cc1`, 140 nM; that for `CC(C)c1ccc(NC(=O)N2CCN(c3ccccn3)CC2)cc1`, 5300 nM.

Take `CC(C)Cc1ccc(NC(=O)N2CCN(c3ccc(C#N)cn3)CC2)cc1`: the IC50 against Pantothenate kinase 3 stood at 490 nM. For `CC(C)c1ccc(NC(=O)N2CCN(c3ccc(C#N)cc3)CC2)cc1`, half-maximal inhibition against Pantothenate kinase 3 (IC50) required 580 nM. The same measure, in the same setting: with `CC(C)c1ccc(NC(=O)N2CCN(c3ccc(N)cn3)CC2)cc1` the figure was over 10000 nM; with `CC(C)c1ccc(NC(=O)N2CCN(c3cnc(C#N)nc3)CC2)cc1`, 170 nM.

In the case of `CC(C)c1ccc(NC(=O)N2CCN(c3ccc(C(F)(F)F)cn3)CC2)cc1`, on Pantothenate kinase 3, the IC50 was 770 nM.
